This is an account of results in PubChem BioAssay (NCI).

Test systems include HCT-116 colon; LOX IMVI melanoma; NCI-H460 lung; IGROV1 ovarian; NCI-H23 lung; CAKI-1 renal; PC-3 prostate; MDA-MB-435; NCI/ADR-RES ovarian; DU-145 prostate.
Holding throughout (test): inhibition of tumour cell growth, NCI panel, 48 h

Molecules are shown by their SMILES.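 Interpolation was linear, between the two tested concentrations surrounding the appropriate level; five concentrations were tested over 48 hours in 96-well plates. GI50 is the concentration that inhibits growth by half. TGI: concentration producing complete growth inhibition.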

Take `COC(=O)C(=O)C(CC(=O)Nc1cccc(C(F)(F)F)c1)C(=O)OC` (centres undefined): the TGI with HCT-116 colon, in the experiment on LOX IMVI melanoma, in the experiment on NCI-H460 lung, in the experiment on IGROV1 ovarian, with NCI-H23 lung and with CAKI-1 renal was > 100 µM each time.
Take `Cc1cn2c(/C=N/N=C(N)N)c(-c3ccsc3)nc2s1`: the GI50 in the experiment on PC-3 prostate is 7.5 µM; in the experiment with HCT-116 colon it was 3.14 µM; in the experiment on LOX IMVI melanoma, 1.6 µM; in the experiment on MDA-MB-435, 11.1 µM; in the experiment on NCI/ADR-RES ovarian, 22.5 µM; with NCI-H460 lung, 5.29 µM. Also, the GI50 with IGROV1 ovarian was 14.9 µM; with NCI-H23 lung, 15.8 µM; in the experiment on CAKI-1 renal, 17.4 µM. For the same compound, the TGI was 20.1 µM in the experiment with PC-3 prostate; 12.6 µM in the experiment on HCT-116 colon; 3.35 µM in the experiment with LOX IMVI melanoma; 24.6 µM in the experiment with MDA-MB-435; 51.5 µM in the experiment on NCI/ADR-RES ovarian; > 100 µM with NCI-H460 lung. The TGI came to 46.3 µM in the experiment with IGROV1 ovarian, 30.5 µM in the experiment on NCI-H23 lung and 32.7 µM in the experiment on CAKI-1 renal.
`O=C(CC1C(=O)Nc2ccccc2S1(=O)=O)Nc1cccc(Cl)c1` (centres undefined): the TGI in the experiment on HCT-116 colon turned out to be 32.1 µM; in the experiment on LOX IMVI melanoma it was 28.6 µM; in the experiment with NCI-H460 lung it was 31.8 µM; with IGROV1 ovarian, 33.4 µM; in the experiment on NCI-H23 lung it was 37.9 µM; in the experiment with CAKI-1 renal, 41.2 µM.
As for `CN(C)c1ccc(/C=N/NC(=O)c2cccc3ccccc23)c(Cl)c1`, the GI50 was 2.24 µM in the experiment with PC-3 prostate; 4.07 µM in the experiment on DU-145 prostate; 0.559 µM with HCT-116 colon; 1.86 µM in the experiment with LOX IMVI melanoma; 1.02 µM in the experiment with NCI/ADR-RES ovarian; 1.01 µM in the experiment on NCI-H460 lung. The GI50 in the experiment on IGROV1 ovarian was 3.44 µM; in the experiment on NCI-H23 lung, 7.51 µM; with CAKI-1 renal, 0.527 µM. Also, the TGI in the experiment on PC-3 prostate, in the experiment on DU-145 prostate, in the experiment on HCT-116 colon, in the experiment on LOX IMVI melanoma, in the experiment on NCI/ADR-RES ovarian and in the experiment on NCI-H460 lung was > 100 µM each time. The TGI in the experiment on IGROV1 ovarian was > 100 µM; in the experiment on NCI-H23 lung, > 100 µM; in the experiment with CAKI-1 renal it was 8.04 µM.
On to `CC12CC(Sc3ccccc3N1)c1ccccc1O2` (centres undefined), for which the TGI stood at 29.2 µM in the experiment with HCT-116 colon; 27 µM in the experiment with LOX IMVI melanoma; 33.2 µM in the experiment with NCI-H460 lung; 48.6 µM in the experiment on IGROV1 ovarian; 29.8 µM in the experiment with NCI-H23 lung; 42.4 µM in the experiment with CAKI-1 renal.
With `Cc1ccc(S(=O)(=O)SCc2ccccc2)cc1`, the TGI is 26.4 µM with HCT-116 colon; 37.2 µM in the experiment with LOX IMVI melanoma; > 69.5 µM in the experiment with NCI-H460 lung; > 100 µM in the experiment on IGROV1 ovarian; 36.2 µM in the experiment on NCI-H23 lung; > 75.2 µM in the experiment on CAKI-1 renal.
As to `O=C(NC(=O)c1cc2cc(Br)cc(Br)c2oc1=O)Oc1ccccc1`, the TGI with HCT-116 colon, in the experiment on LOX IMVI melanoma, in the experiment on NCI-H460 lung, in the experiment on IGROV1 ovarian, in the experiment on NCI-H23 lung and in the experiment with CAKI-1 renal was > 100 µM throughout.
`Cn1c(C(C)(C)OC(=O)Oc2ccccc2)cnc1[N+](=O)[O-]`: the TGI in the experiment with PC-3 prostate, in the experiment on DU-145 prostate, with HCT-116 colon, in the experiment on MDA-MB-435, with NCI/ADR-RES ovarian and in the experiment on NCI-H460 lung was > 100 µM throughout. For the same compound, the TGI in the experiment with IGROV1 ovarian, with NCI-H23 lung and in the experiment with CAKI-1 renal was > 100 µM throughout.
Take `Cc1cc(NS(=O)(=O)c2ccc(Nc3c4ccccc4nc4c(C(=O)Nc5ccc(S(=O)(=O)N=C(N)N)cc5)ccc(Cl)c34)cc2)no1`: the TGI in the experiment on HCT-116 colon is > 100 µM; in the experiment on LOX IMVI melanoma it was 36.8 µM; with NCI-H460 lung, > 100 µM; in the experiment with NCI-H23 lung it was 92.6 µM; with CAKI-1 renal it was > 100 µM.
As to `CCCCN1CCN(c2ccc3nc(-c4ccc5nc(-c6ccc(OCC)c(OCC)c6)[nH]c5c4)[nH]c3c2)CC1`, the GI50 is 1.08 µM in the experiment with PC-3 prostate; 1 µM with DU-145 prostate; 0.431 µM in the experiment with HCT-116 colon; 1.09 µM in the experiment with MDA-MB-435; > 100 µM in the experiment with NCI/ADR-RES ovarian; 0.533 µM in the experiment with NCI-H460 lung. In the experiment on CAKI-1 renal, the GI50 was 1.04 µM. Further, the TGI in the experiment on PC-3 prostate is 2.44 µM; in the experiment with DU-145 prostate, 2.21 µM; in the experiment with HCT-116 colon, 1.66 µM; in the experiment with MDA-MB-435 it was 2.39 µM; in the experiment with NCI/ADR-RES ovarian, > 100 µM; with NCI-H460 lung, 1.86 µM. In the experiment on CAKI-1 renal, the TGI worked out at 2.52 µM.
Take `COc1ccc(C#CC2=C(c3cc(OC)c(OC)c(OC)c3)C(=O)OC2)cc1`: the GI50 in the experiment with PC-3 prostate was 2.95 µM; in the experiment with HCT-116 colon, 1.8 µM; in the experiment with MDA-MB-435, 1.49 µM; in the experiment on NCI/ADR-RES ovarian, 5.82 µM; with NCI-H460 lung it was 6.65 µM; with IGROV1 ovarian it was 13.9 µM. For the same compound, the GI50 is 5.77 µM in the experiment on NCI-H23 lung and 1.18 µM with CAKI-1 renal. Besides, the TGI in the experiment on PC-3 prostate is > 50 µM; with HCT-116 colon it was > 50 µM; in the experiment on MDA-MB-435, 7.82 µM; with NCI/ADR-RES ovarian it was 27.9 µM; in the experiment on NCI-H460 lung, > 50 µM; in the experiment on IGROV1 ovarian, > 50 µM. Besides, the values for the TGI in the experiment with NCI-H23 lung and in the experiment with CAKI-1 renal were 17.3 µM and 2.99 µM, respectively.
On to `CC(C)(C)OC(=O)NCCCCCCCCCCn1c2c(c3ccccc3c1=O)C(=O)c1ccccc1-2`, for which the GI50 in the experiment on PC-3 prostate is > 100 µM; in the experiment with DU-145 prostate it was 96.6 µM; with HCT-116 colon it was 60 µM; with LOX IMVI melanoma it was > 100 µM; in the experiment on MDA-MB-435, > 100 µM; with NCI/ADR-RES ovarian, > 100 µM. Also, the figures for the GI50 in the experiment on NCI-H460 lung, with NCI-H23 lung and with CAKI-1 renal were > 100 µM, 34.2 µM and 27.9 µM, respectively. The TGI in the experiment with PC-3 prostate, in the experiment on DU-145 prostate, with HCT-116 colon, with LOX IMVI melanoma, in the experiment on MDA-MB-435 and with NCI/ADR-RES ovarian was > 100 µM in each case. Also, the TGI in the experiment on NCI-H460 lung, in the experiment with NCI-H23 lung and in the experiment on CAKI-1 renal was > 100 µM in each case.
With `O=C1c2c(c3c4ccccc4[nH]c3c3[nH]c4ccccc4c23)C(=O)N1Cc1ccccc1`, the TGI is 8.76 µM with HCT-116 colon; 8.31 µM in the experiment on LOX IMVI melanoma; 13.5 µM with NCI-H460 lung; 18.7 µM in the experiment with IGROV1 ovarian; 6.16 µM in the experiment with NCI-H23 lung; 10.2 µM in the experiment on CAKI-1 renal.
